Laboratory results reported in patent US20260345619A1 (Principia Biopharma Inc., priority 2023, published 2026).

Experiment: Pre-bronchodilator FEV1 and percent predicted FEV1 by spirometry, change from baseline
Format: in vivo, human
Details: 400 mg BID
Method: Spirometry is a standard test to measure patients' lung function.
The primary endpoint was the proportion of patients with LOAC. The key secondary endpoint for the study was change in pre-bronchodilator FEV1 from baseline at EOT.
Reversibility is defined as an increase of the absolute FEV1 after administration of bronchodilator and is measured by spirometry as postbronchodilator increase in FEV1 in percent of the prebronchodilator FEV1. After spirometry for measuring prebronchodilator FEV1, participants were to receive 2-4 puffs of albuterol/salbutamol or levalbuterol/levosalbutamol from a primed MDI. The postbronchodilator spirometry may have been repeated several times within 30 minutes after administration of bronchodilator. Alternatively, and only if it was consistent with usual office practice (to be documented), reversibility may have been performed using inhalation of nebulized albuterol/salbutamol or levalbuterol/levosalbutamol.
Secondary endpoints included pre-bronchodilator FEV1 change from baseline at EOT, ACQ-5 score change from baseline, and AQLQ score change from baseline. Other secondary and exploratory endpoints are described in Table 2.

[1] = Week 12, baseline weight ≥90 kg
[2] = Week 12, smoking history Former
[3] = EOT (Week 12), all others, mITT
[4] = Week 2, before LOAC and OCS use, as observed, mITT
[5] = Week 2, observed/LOCF imputed, mITT
[6] = Week 2, on-site conventional spirometry as observed, mITT
[7] = Week 4, before LOAC and OCS use, as observed, mITT
[8] = Week 4, observed/LOCF imputed, mITT
[9] = Week 4, on-site conventional spirometry as observed, mITT
[10] = Week 6, before LOAC and OCS use, as observed, mITT
[11] = Week 6, observed/LOCF imputed, mITT
[12] = Week 6, on-site conventional spirometry as observed, mITT
[13] = Week 8, before LOAC and OCS use, as observed, mITT
[14] = Week 8, observed/LOCF imputed, mITT
[15] = Week 8, on-site conventional spirometry as observed, mITT
[16] = Week 10, before LOAC and OCS use, as observed, mITT
[17] = Week 10, observed/LOCF imputed, mITT
[18] = Week 10, on-site conventional spirometry as observed, mITT
[19] = Week 12 (EOT), MMRM supplementary analysis, mITT
[20] = Week 12, before LOAC and OCS use, as observed, mITT

With `CC(C)(C=C(C#N)C(=O)N1CCC[C@@H](n2nc(-c3ccc(Oc4ccccc4)cc3F)c3c(N)ncnc32)C1)N1CCN(C2COC2)CC1` (mixture of isomers) [rilzabrutinib, (R)-2-[3-[4-amino-3-(2-fluoro-4-phenoxy-phenyl)pyrazolo[3,4-d]pyrimidin-1-yl]piperidine-1-carbonyl]-4-methyl-4-[4-(oxetan-3-yl)piperazin-1-yl]pent-2-enenitrile] the “Pre-bronchodilator FEV1 change from baseline, LS Mean” value [1] was -0.25 L, the “Pre-bronchodilator FEV1 change from baseline, LS Mean Diff vs. placebo” value [1] was -0.37 L and the “Pre-bronchodilator FEV1 change from baseline, Mean” value [1] was -0.17 L. For the same molecule, the “Pre-bronchodilator FEV1 change from baseline, LS Mean” value (Week 12, female) was 0.00 L, the “Pre-bronchodilator FEV1 change from baseline, LS Mean Diff vs. placebo” value (Week 12, female) was 0.04 L and the “Pre-bronchodilator FEV1 change from baseline, Mean” value (Week 12, female) was -0.01 L. For the same molecule, the “Pre-bronchodilator FEV1 change from baseline, LS Mean” value (Week 12, male) was -0.23 L, the “Pre-bronchodilator FEV1 change from baseline, LS Mean Diff vs. placebo” value (Week 12, male) was -0.16 L and the “Pre-bronchodilator FEV1 change from baseline, Mean” value (Week 12, male) was -0.08 L. For the same molecule, the “Pre-bronchodilator FEV1 change from baseline, LS Mean” value [2] was -0.57 L, the “Pre-bronchodilator FEV1 change from baseline, LS Mean Diff vs. placebo” value [2] was -0.21 L and the “Pre-bronchodilator FEV1 change from baseline, Mean” value [2] was -0.36 L. For the same molecule, the “Pre-bronchodilator FEV1 change from baseline, LS Mean” value (Week 12, smoking history Never) was -0.05 L, the “Pre-bronchodilator FEV1 change from baseline, LS Mean Diff vs. placebo” value (Week 12, smoking history Never) was 0.03 L and the “Pre-bronchodilator FEV1 change from baseline, Mean” value (Week 12, smoking history Never) was 0.02 L. The “Difference vs. placebo, LS mean change in pre-bronchodilator FEV1 (L) at Week 12” value (95% CI −0.17, 0.19, p=0.9466) was 0.01 L, the “Change from baseline in pre-bronchodilator FEV1, LS Mean (SE)” value [3] was -0.05 L and the “Change from baseline in pre-bronchodilator FEV1, LS Mean Diff vs. placebo (95% CI)” value [3] was 0.03 L. For the same molecule, the “Change from baseline in pre-bronchodilator FEV1, Mean (SD)” value (EOT (Week 12), all others, mITT, n=22) was -0.02 L, the “Change from baseline in pre-bronchodilator FEV1, Mean (SD)” value (EOT (Week 12), low EOS (<0.15) and low FeNO (<25), mITT, n=3) was -0.17 L and the “LS Mean change from baseline in pre-bronchodilator FEV1 (L) at Week 12” value (N=32, mITT) was −0.07 (0.08) L. The “Pre-bronchodilator FEV1, mean” value [4] was 2.20 L, the “Pre-bronchodilator FEV1, median” value [4] was 2.08 L and the “Pre-bronchodilator FEV1 change from baseline, Mean” value [4] was 0.08 L. For the same molecule, the “Pre-bronchodilator FEV1 change from baseline, median” value [4] was 0.04 L, the “Pre-bronchodilator FEV1 percent change from baseline, mean” value [4] was 4.47% and the “Pre-bronchodilator FEV1 percent change from baseline, median” value [4] was 2.02%. For the same molecule, the “Pre-bronchodilator FEV1, mean” value [5] was 2.20 L, the “Pre-bronchodilator FEV1, median” value [5] was 2.08 L and the “Pre-bronchodilator FEV1 change from baseline, LS Mean” value [5] was 0.06 L. For the same molecule, the “Pre-bronchodilator FEV1 change from baseline, LS Mean Diff vs. placebo” value [5] was 0.00 L, the “Pre-bronchodilator FEV1 change from baseline, Mean” value [5] was 0.08 L and the “Pre-bronchodilator FEV1 change from baseline, median” value [5] was 0.04 L. The “Pre-bronchodilator FEV1, mean” value [6] was 2.20 L, the “Pre-bronchodilator FEV1, median” value [6] was 2.08 L and the “Pre-bronchodilator FEV1 change from baseline, Mean” value [6] was 0.08 L. For the same molecule, the “Pre-bronchodilator FEV1 change from baseline, median” value [6] was 0.04 L, the “Pre-bronchodilator FEV1 percent change from baseline, mean” value [6] was 4.47% and the “Pre-bronchodilator FEV1 percent change from baseline, median” value [6] was 2.02%. The “Pre-bronchodilator FEV1, mean” value [7] was 2.05 L, the “Pre-bronchodilator FEV1, median” value [7] was 1.96 L and the “Pre-bronchodilator FEV1 change from baseline, Mean” value [7] was 0.07 L. The “Pre-bronchodilator FEV1 change from baseline, median” value [7] was 0.02 L, the “Pre-bronchodilator FEV1 percent change from baseline, mean” value [7] was 3.72% and the “Pre-bronchodilator FEV1 percent change from baseline, median” value [7] was 0.55%. The “Pre-bronchodilator FEV1, mean” value [8] was 2.07 L, the “Pre-bronchodilator FEV1, median” value [8] was 1.96 L and the “Pre-bronchodilator FEV1 change from baseline, LS Mean” value [8] was 0.08 L. For the same molecule, the “Pre-bronchodilator FEV1 change from baseline, LS Mean Diff vs. placebo” value [8] was -0.01 L, the “Pre-bronchodilator FEV1 change from baseline, Mean” value [8] was 0.07 L and the “Pre-bronchodilator FEV1 change from baseline, median” value [8] was 0.02 L. The “Pre-bronchodilator FEV1, mean” value [9] was 2.05 L, the “Pre-bronchodilator FEV1, median” value [9] was 1.96 L and the “Pre-bronchodilator FEV1 change from baseline, Mean” value [9] was 0.07 L. For the same molecule, the “Pre-bronchodilator FEV1 change from baseline, median” value [9] was 0.02 L, the “Pre-bronchodilator FEV1 percent change from baseline, mean” value [9] was 3.72% and the “Pre-bronchodilator FEV1 percent change from baseline, median” value [9] was 0.55%. The “Pre-bronchodilator FEV1, mean” value [10] was 2.24 L, the “Pre-bronchodilator FEV1, median” value [10] was 2.01 L and the “Pre-bronchodilator FEV1 change from baseline, Mean” value [10] was 0.09 L. For the same molecule, the “Pre-bronchodilator FEV1 change from baseline, median” value [10] was 0.07 L, the “Pre-bronchodilator FEV1 percent change from baseline, mean” value [10] was 3.99% and the “Pre-bronchodilator FEV1 percent change from baseline, median” value [10] was 3.66%. For the same molecule, the “Pre-bronchodilator FEV1, mean” value [11] was 2.24 L, the “Pre-bronchodilator FEV1, median” value [11] was 2.01 L and the “Pre-bronchodilator FEV1 change from baseline, LS Mean” value [11] was -0.03 L. For the same molecule, the “Pre-bronchodilator FEV1 change from baseline, LS Mean Diff vs. placebo” value [11] was -0.03 L, the “Pre-bronchodilator FEV1 change from baseline, Mean” value [11] was 0.09 L and the “Pre-bronchodilator FEV1 change from baseline, median” value [11] was 0.07 L. For the same molecule, the “Pre-bronchodilator FEV1, mean” value [12] was 2.24 L, the “Pre-bronchodilator FEV1, median” value [12] was 2.06 L and the “Pre-bronchodilator FEV1 change from baseline, Mean” value [12] was 0.10 L. The “Pre-bronchodilator FEV1 change from baseline, median” value [12] was 0.07 L, the “Pre-bronchodilator FEV1 percent change from baseline, mean” value [12] was 4.61% and the “Pre-bronchodilator FEV1 percent change from baseline, median” value [12] was 5.14%. For the same molecule, the “Pre-bronchodilator FEV1, mean” value [13] was 2.10 L, the “Pre-bronchodilator FEV1, median” value [13] was 1.83 L and the “Pre-bronchodilator FEV1 change from baseline, Mean” value [13] was 0.08 L. For the same molecule, the “Pre-bronchodilator FEV1 change from baseline, median” value [13] was 0.11 L, the “Pre-bronchodilator FEV1 percent change from baseline, mean” value [13] was 3.28% and the “Pre-bronchodilator FEV1 percent change from baseline, median” value [13] was 3.73%. The “Pre-bronchodilator FEV1, mean” value [14] was 2.09 L, the “Pre-bronchodilator FEV1, median” value [14] was 1.83 L and the “Pre-bronchodilator FEV1 change from baseline, LS Mean” value [14] was -0.00 L. The “Pre-bronchodilator FEV1 change from baseline, LS Mean Diff vs. placebo” value [14] was 0.02 L, the “Pre-bronchodilator FEV1 change from baseline, Mean” value [14] was 0.04 L and the “Pre-bronchodilator FEV1 change from baseline, median” value [14] was 0.05 L. For the same molecule, the “Pre-bronchodilator FEV1, mean” value [15] was 2.08 L, the “Pre-bronchodilator FEV1, median” value [15] was 1.86 L and the “Pre-bronchodilator FEV1 change from baseline, Mean” value [15] was 0.08 L. The “Pre-bronchodilator FEV1 change from baseline, median” value [15] was 0.09 L, the “Pre-bronchodilator FEV1 percent change from baseline, mean” value [15] was 3.30% and the “Pre-bronchodilator FEV1 percent change from baseline, median” value [15] was 3.64%. For the same molecule, the “Pre-bronchodilator FEV1, mean” value [16] was 2.29 L, the “Pre-bronchodilator FEV1, median” value [16] was 1.93 L and the “Pre-bronchodilator FEV1 change from baseline, Mean” value [16] was 0.21 L. For the same molecule, the “Pre-bronchodilator FEV1 change from baseline, median” value [16] was 0.12 L, the “Pre-bronchodilator FEV1 percent change from baseline, mean” value [16] was 10.71% and the “Pre-bronchodilator FEV1 percent change from baseline, median” value [16] was 4.52%. For the same molecule, the “Pre-bronchodilator FEV1, mean” value [17] was 2.24 L, the “Pre-bronchodilator FEV1, median” value [17] was 1.93 L and the “Pre-bronchodilator FEV1 change from baseline, LS Mean” value [17] was 0.02 L. The “Pre-bronchodilator FEV1 change from baseline, LS Mean Diff vs. placebo” value [17] was 0.06 L, the “Pre-bronchodilator FEV1 change from baseline, Mean” value [17] was 0.13 L and the “Pre-bronchodilator FEV1 change from baseline, median” value [17] was 0.09 L. The “Pre-bronchodilator FEV1, mean” value [18] was 2.29 L, the “Pre-bronchodilator FEV1, median” value [18] was 1.93 L and the “Pre-bronchodilator FEV1 change from baseline, Mean” value [18] was 0.21 L. The “Pre-bronchodilator FEV1 change from baseline, median” value [18] was 0.12 L, the “Pre-bronchodilator FEV1 percent change from baseline, mean” value [18] was 10.71% and the “Pre-bronchodilator FEV1 percent change from baseline, median” value [18] was 4.52%. The “Change from baseline in pre-bronchodilator FEV1, Mean” value [19] was -0.02 L, the “Change from baseline in pre-bronchodilator FEV1, Median” value [19] was -0.04 L and the “Pre-bronchodilator FEV1, Mean” value [19] was 2.01 L. For the same molecule, the “Pre-bronchodilator FEV1, Median” value [19] was 1.88 L, the “Change from baseline in pre-bronchodilator FEV1, LS Mean” value (Week 12 (EOT), MMRM, mITT) was -0.01 L and the “Change from baseline in pre-bronchodilator FEV1, LS Mean diff vs. placebo” value (Week 12 (EOT), MMRM, mITT) was 0.00 L. The “Pre-bronchodilator FEV1, mean” value [20] was 2.01 L, the “Pre-bronchodilator FEV1, median” value [20] was 1.88 L and the “Pre-bronchodilator FEV1 change from baseline, Mean” value [20] was -0.02 L.
